# Results from US20220119399A1, “COMPOUNDS AND COMPOSITIONS THAT CAUSE MYCN AND/OR CMYC DEGRADATION AND METHODS OF USE THEREOF” (THE TRUSTEES OF COLUMBIA UNIVERSITY IN THE CITY OF NEW YORK, priority 2018, published 2022).
# Legend:
# cMyc = assay: Western blot of cMyc in A549 cells; format: cell-based; details: A549 cells, 5, 10, or 15 μM, 24 hrs
# Excerpt: Membranes were blocked using Odyssey Blocking Buffer (LI-COR) for 1 hr at room temperature. […] Primary antibodies used in these studies include: MycN (CST; 1:500 dilution), Actin (SCBT; 1:2000 dil.), cMYC (CST; 1:500 dil.), pAKT (S473; CST; 1:500 dil.), AKT (CST; 1:2000), pP70 (T389; CST; 1:1000) P70 (CST; 1:1000).
# There are some shared upstream regulatory pathways that govern both MycN and cMyc expression, including mTOR signaling cascade (Guertin and Sabatini 2007; Hay and Sonenberg 2004). We hypothesized that isopomiferin could disrupt the expression of cMyc as well. We identified a cMyc-expressing lung cancer line, A549, and treated cells with 5, 10, or 15 μM isopomiferin for 24 hrs (FIG. 3D).
# Solubility = format: physicochemical
# MYCN MR signature = assay: RNASeq with VIPER analysis of the MYCN MR signature; format: cell-based, human; details: SK-N-Be2 cells
# Procedure: To uncover changes in gene expression that underpin responses to pomiferin and isopomiferin, RNASeq analysis of SK-N-Be2 cells was performed following treatment with the two active prenylated isoflavonoids as well as a null analog that served as a negative control. SK-N-Be2 cells were treated with either 3 μM or 10 μM of isopomiferin or pomiferin and sampled after 3 h and 6 h. […] By comparing the active to the null analogs, downstream analyses can focus on changes in gene expression associated with the MYCN signature.
# Intriguingly, only six MRs were suppressed by pomiferin and isopomiferin, while being unaffected by the null analog dimethyl pomiferin (FIG. 20B).
# CK2a2 = target: T1, CK2a2 (Homo sapiens, UniProt P19784); assay: Cell-free biochemical CK2a2 kinase assay
# T1 construct: purchased Reaction Biology Corporation (Malvern, Pa.)
# T1 sequence (P19784 whole entry): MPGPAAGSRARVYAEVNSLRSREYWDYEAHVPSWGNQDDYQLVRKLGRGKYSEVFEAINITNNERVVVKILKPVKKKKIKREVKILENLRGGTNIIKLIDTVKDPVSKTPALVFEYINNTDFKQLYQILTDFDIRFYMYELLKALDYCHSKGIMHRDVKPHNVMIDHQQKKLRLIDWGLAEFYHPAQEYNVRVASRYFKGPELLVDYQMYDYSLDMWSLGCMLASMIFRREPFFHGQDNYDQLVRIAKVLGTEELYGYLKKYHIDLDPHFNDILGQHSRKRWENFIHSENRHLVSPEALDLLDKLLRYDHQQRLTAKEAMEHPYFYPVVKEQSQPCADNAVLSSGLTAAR
# Procedure: Cell-free biochemical kinase assays were performed at Reaction Biology Corporation (Malvern, Pa.). In brief, kinase substrates were diluted into reaction buffer containing 20 mM Hepes (pH 7.5), 10 mM MgCl2, 1 mM EGTA, 0.02% Brij35, 0.02 mg/ml BSA, 0.1 mM Na3VO4, 2 mM DTT, 1% DMSO. Purified protein (CK2a1, CK2a2, or mTOR) was added to the substrate solution and gently mixed. Test compounds were diluted from 10 mM DMSO stock solutions into the reaction buffer using an Echo550 acoustic dispenser, followed by incubation at RT for 20 min. 33P-ATP (10 μCi/μL) was added to reaction mixture, following incubation for 2 h at RT. Reactions were then spotted onto P81 ion exchange paper and kinase activity was detected by filter binding method.
Structure (SMILES),cMyc protein abundance (cMyc),solubility (Solubility),effect on the MYCN MR signature (VIPER of RNASeq) (MYCN MR signature),CK2a2 kinase activity (CK2a2)
CC1(C)C=Cc2c(c3c(c4c(=O)c(-c5ccc(O)c(O)c5)coc24)OC(C)(C)CC3)O1 [isopomiferin],suppressed cMyc protein abundance in A549 in a dose dependent manner,not soluble in aqueous buffers,,
CC(C)=CCc1c2c(c3occ(-c4ccc(O)c(O)c4)c(=O)c3c1O)C=CC(C)(C)O2 [pomiferin],,,had the strongest effect on the MYCN MR signature,inhibiting both isoforms equally in a concentration-dependent manner
